pIC50: −log10 of the molar value.
Biological target: T1, Caspase-3 (Homo sapiens, UniProt P42574)
T1 sequence (P42574 whole entry): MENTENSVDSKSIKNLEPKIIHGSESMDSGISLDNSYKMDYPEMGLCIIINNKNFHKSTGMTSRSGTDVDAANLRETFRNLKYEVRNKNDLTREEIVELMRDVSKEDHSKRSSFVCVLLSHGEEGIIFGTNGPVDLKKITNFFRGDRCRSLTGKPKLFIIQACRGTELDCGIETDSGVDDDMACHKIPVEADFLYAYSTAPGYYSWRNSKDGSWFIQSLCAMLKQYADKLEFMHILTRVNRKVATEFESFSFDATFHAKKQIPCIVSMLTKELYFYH
Test: Caspase Inhibition Assay
Conditions: pH 7; 37 °C

CC(=O)N[C@@H](CC(=O)O)C(=O)N[C@H]1CCc2cccc3c2N(C1=O)[C@H](C(=O)N[C@@H](CC(=O)O)C(=O)CSCc1ccccc1)C3 [(3S)-5-(benzylsulfanyl)-3-{[(2S,11S)-11-[(3S)-3-acetamido-3-formamidopropanoic acid]-12-oxo-1-azatricyclo[6.4.1.0^{4,13}]trideca-4(13),5,7-trien-2-yl]formamido}-4-oxopentanoic acid]
pIC50: 8.52

From BindingDB's records for doi:10.1021/jm0305523 (Merck Research Laboratories, 2004)
